Key:
[1] = test system: green peach aphid (Myzus persicae); test: Myzus test, spray treatment, Example F; assay type: in vivo; settings: 500 g a.i./ha, China cabbage leaf sections
Method: (§1) To prepare a suitable active compound preparation 1 part by weight of the active compound is mixed with the given amount of solvent and the given amount of emulsifier and the concentrate is diluted to the desired concentration with water containing emulsifier.
China cabbage leaf sections (brassica pekinensis) that are infected with all stages of the green peach aphid (Myzus persicae) are sprayed with an active compound preparation at the desired concentration.
(§2) After the desired time the activity in % is determined. Here 100% means that all aphids were killed; 0% means that no aphids were killed.

[2] = test system: fall army worm (Spodoptera frugiperda); test: Spodoptera frugiperda test, Example G; assay type: in vivo; settings: 500 g a.i./ha, cabbage leaves, immersion, caterpillars
Method: as §1
Cabbage leaves (Brassica oleracea) are treated by immersion in the active compound preparation at the desired concentration and infected with caterpillars of the fall army worm (Spodoptera frugiperda) while the leaves are still wet.
After the desired time the death rate in % is determined. Here 100% means that all caterpillars were killed; 0% means that no caterpillars were killed.

[3] = test system: green peach aphid (Myzus persicae); test: Myzus persicae test (cabbage leaves, immersion), Example A; assay type: in vivo; settings: for Death rate in % after 6d: 1000 ppm, cabbage leaves (Brassica oleracea)
Method: (§3) To prepare a suitable active compound preparation 1 part by weight of the active compound is mixed with the given amount of solvent and the given amount of emulsifier and the concentrate is diluted to the desired concentration with water.
Cabbage leaves (Brassica oleracea) that are highly infested with the green peach aphid (Myzus persicae) are treated by immersion in the active compound preparation at the desired concentration.
(§4) After the desired time the death rate in % is determined. Here 100% means that all aphids were killed; 0% means that no aphids were killed.

[4] = test system: cotton aphid (Aphis gossypii); test: Aphis gossypii test, soil application, Example D; assay type: in vivo; settings: cotton plant
Method: as §3
The active compound preparation is mixed with soil. The concentration given relates to the amount of active compound per unit volume soil (mg/l=ppm). The treated soil is filled into pots and planted with one cotton plant (Gossypium hirsutum). After a week infection is carried out with the cotton aphid (Aphis gossypii).
as §4

[5] = test system: green peach aphid (Myzus persicae); test: Myzus persicae test, soil application, Example C; assay type: in vivo; settings: pepper plant
Method: as §3
The active compound preparation is mixed with soil. The concentration given relates to the amount of active compound per unit volume soil (mg/l=ppm). The treated soil is filled into pots and planted with one pepper plant (Capsicum annuum). After one week infection is carried out with the green peach aphid (Myzus persicae).
as §2

[6] = test system: green peach aphid (Myzus persicae); test: Myzus test, spray treatment, Example B; assay type: in vivo; settings: Chinese cabbage leaves
Method: To prepare a suitable active compound preparation 1 part by weight of the active compound is mixed with the given amount of solvent and the given amount emulsifier and the concentrate is diluted to the desired concentration with water.
Chinese cabbage leaves (Brassica pekinensis) infested with all stages of the green peach aphid (Myzus persicae) were sprayed with an active compound preparation at the desired concentration.
as §4

physchem = settings: pH 2
[7] = test system: white fly (Bemisia tabaci, resistant strain); test: Bemisia tabaci test, resistant strain, Example E; assay type: in vivo; settings: cotton leaf sections, immersion
Method: as §1
Leaf sections of cotton plants (Gossypium hirsutum) are treated by immersion in the active compound preparation at the desired concentration and after drying of the coating are infected with adults of the white fly (Bemisia tabaci, resistant strain).
After the desired time the death rate in % is determined. Here 100% means that all animals were killed; 0% means that no animals were killed.

[8] = test system: mixed thrips population (Frankliniella occidentalis); test: Frankliniella occidentalis test, Example H; assay type: in vivo; settings: 100 ppm, cotton plants, spraying
Method: as §1
Cotton plants (Gossypium hirsutum) are treated by spraying with the active compound preparation at the desired concentration and infected with a mixed thrips population (Frankliniella occidentalis).
After the desired time the death rate in % is determined. Here 100% means that all thrips were killed; 0% means that no thrips were killed.

For `CON/C(=N\[N+](=O)[O-])N(C)Cc1ccc(Cl)nc1`, the “Activity in % after 5d” value [1] was 100%.

With `CON/C(=N\C#N)NCc1ccc(Cl)nc1` the “Activity in % after 5d” value [1] was 100%.

With `CON/C(=N\C#N)NCc1cnc(Cl)s1` the “Death rate in % after 7d” value [2] was 100%.

In the case of `CON/C(=N\[N+](=O)[O-])NCc1ccc(Cl)nc1` [Example I-1, N-methoxy-N′-(2-chloropyrid-5-ylmethyl)nitroguanidine], the “Death rate in % after 6d” value [3] is reported as 98%, the “Death rate in % after 7d” value ([4]; 8 ppm (mg/l soil)) is reported as 100% and the “Death rate in % after 7d” value ([5]; 8 ppm (mg/l soil)) is reported as 100%.

For `CCON/C(=N/[N+](=O)[O-])NCc1ccc(Cl)nc1` [Example I-2], the “Death rate in % after 4d” value ([6]; 500 ppm, after 4 d) was 100% and the “activity in Myzus test, spray treatment” value [6] was “good activity”.

In the case of `CON/C(=N/[N+](=O)[O-])NCc1cnc(Cl)s1` [Example I-5], the “Death rate in % after 6d” value [3] is reported as 98%, the “activity in Myzus persicae test” value ([3]; cabbage leaves) is reported as “good activity” and the “Death rate in % after 7d” value ([4]; 0.25 ppm (mg/l soil)) is reported as 80%. For the same molecule, the “activity in Aphis gossypii test, soil application” value [4] was “good activity”, the logP (physchem) was 1.13 and the “Death rate in % after 3d” value ([7]; 1000 ppm, after 3 d, adults) was 93%. For the same molecule, the “activity in Bemisia tabaci test, resistant strain” value [7] was “good activity”, the “Death rate in % after 7d” value ([5]; 0.25 ppm (mg/l soil)) was 85% and the “activity in Myzus persicae test, soil application” value [5] was “good activity”.

For `CON/C(=N/[N+](=O)[O-])NCc1cnc(Cl)s1` [drawing 35], the “Death rate in % after 14d” value [8] was 90%.
